Data from patent US20240308960A1 (Sumitomo Pharma Co., Ltd., priority 2021, published 2024).

Molecular target: T1, Human orexin receptor type 2 (Homo sapiens, UniProt O43614)
T1 sequence (O43614 1-444): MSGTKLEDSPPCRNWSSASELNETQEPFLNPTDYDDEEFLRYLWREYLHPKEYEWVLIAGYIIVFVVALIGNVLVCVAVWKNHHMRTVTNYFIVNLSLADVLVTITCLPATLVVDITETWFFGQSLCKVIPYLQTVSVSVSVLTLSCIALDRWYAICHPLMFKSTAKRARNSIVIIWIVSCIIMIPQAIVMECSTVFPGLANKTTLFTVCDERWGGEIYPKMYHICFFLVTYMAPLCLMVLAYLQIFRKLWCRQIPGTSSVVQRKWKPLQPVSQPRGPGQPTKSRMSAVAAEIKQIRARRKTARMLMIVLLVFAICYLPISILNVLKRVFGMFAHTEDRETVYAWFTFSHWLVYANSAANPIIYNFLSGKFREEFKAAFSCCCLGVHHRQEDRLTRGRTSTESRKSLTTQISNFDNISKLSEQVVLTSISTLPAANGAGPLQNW
Test: Test Example 2: agonist activity for orexin receptor type 2 (aequorin luminescence, intracellular calcium mobilization)
Assay type: cell-based
Parameters: expressed in transfected cells; host or cells: CHO cells (transient expression)
Settings: compound 10 μm; CHO cells transiently expressing human orexin receptor type 2 and apoaequorin; relative percentage of luminescence for the luminescence (100%) of Orexin A (100 pM)
Method: Test Example 2: Measurement of Agonist Activity for Orexin Receptor 2 Type
Human orexin receptor type 2 and apoaequorin were transiently expressed in CHO cells, and the agonist activity was evaluated based on intracellular calcium mobilization with ligand stimulation. The CHO cells transiently-expressed human orexin receptor type 2 and apoaequorin were seeded on a 384-well plate by 2,000 cells/well, and then incubated for 16-22 hours. After the plate was returned to room temperature, Coelenterazine hcp (final concentration: 1 μM) was added to the plate, and the plate was allowed to stand at room temperature for 2 hours. And then, Orexin A (PEPTIDE INSTITUTE, INC., Lot. 671009) or each test compound was added to the plate, and the luminescence of the cells was measured with FDSS7000 (Hamamatsu Photonics K. K.), wherein Orexin A and each test compound were dissolved in DMSO (final concentration: 0.1%), and diluted with a buffer (Hanks, 20 mM HEPES, 0.1% BSA).

Row | SMILES | Agonist Activity (%)
1 | CC(C)N1CCN(c2cccc(Cl)c2NC(=O)N2C[C@H]3C[C@H](c4noc(C5CC5)n4)C[C@H]3C2)CC1 [Example 169, (3aR,5s,6aS)-N-{2-chloro-6-[4-(propan-2-yl)piperazin-1-yl]phenyl}-5-(5-cyclopropyl-1,2,4-oxadiazol-13-yl) hexahydrocyclopenta [c]pyrrol-2 (1H)-carboxamide] | 444%
2 | CC(C)N1CCN(c2cccc(Cl)c2NC(=O)N2C[C@H]3C[C@@H](c4noc(C5CC5)n4)C[C@H]3C2)CC1 [Example 170, (3aR,5r,6aS)-N-{2-chloro-6-[4-(propan-2-yl)piperazin-1-yl]phenyl}-5-(5-cyclopropyl-1,2,4-oxadiazol-13-yl) hexahydrocyclopenta [c]pyrrol-2 (1H)-carboxamide] | 357%
